According to patent publication US9248131B2, “Aquaporin modulators and methods of using them for the treatment of edema and fluid imbalance” (THE ARIZONA BOARD OF REGENTS ON BEHALF OF THE UNIVERSITY OF …, priority 2006, dated 2016):
One block for each molecule: values may come before it.

Columns and labels:
AQP4 = target: T1, AQP4 (Homo sapiens, UniProt P55087); assay: Oocyte swelling assay: water permeability (Pf) of AQP4-expressing oocytes by videomicroscopy, block or % stimulation; assay type: cell-based
T1 construct: expressed in transfected cells; host or cells: Xenopus oocytes
T1 sequence (P55087 whole entry, species assumed): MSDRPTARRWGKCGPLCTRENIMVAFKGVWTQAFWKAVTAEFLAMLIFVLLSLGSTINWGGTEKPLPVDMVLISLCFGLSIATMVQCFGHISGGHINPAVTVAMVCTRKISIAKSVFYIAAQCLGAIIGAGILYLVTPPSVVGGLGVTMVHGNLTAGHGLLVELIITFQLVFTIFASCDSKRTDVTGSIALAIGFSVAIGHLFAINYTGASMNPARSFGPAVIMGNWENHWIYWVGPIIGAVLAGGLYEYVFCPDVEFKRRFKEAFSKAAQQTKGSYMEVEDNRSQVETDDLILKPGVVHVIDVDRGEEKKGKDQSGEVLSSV
Excerpt: (§1) A method for screening compounds for their ability to modulate aquaporin activity based on a water permeability assay in Xenopus oocytes expressing aquaporins which is used to identify, assess, and characterize compounds that either block or stimulate the aquaporin channels including AQP1, AQP4 and AQP9 channels.
(§2) Selection rationale and methodology. The ability of compounds, analogs and/or agents to block an aquaporin channel was quantified by videomicroscopic analyses of cross-sectional area of AQP-expressing oocytes as a function of time in a defined osmotic gradient, allowing the calculation of the water permeability factor (Pf), statistical evaluation of significant differences in the rate of water entry, and definition of dose response curves with IC50 values (concentration required for half-maximal block).
(§3) This compound evaluation method has been utilized with AQP1,-4,-5, and -9 channels. Observations of channel stimulation were made using the same assay method, however, the results were reported as % stimulation over control at a given concentration. […] TEA is known as a blocker of K^+ channel subtypes and nicotinic acetylcholine receptors. TEA sensitivity of AQP1 was removed by site-directed mutagenesis of tyrosine 186 to phenylalanine (Y186F) in the outer vestibule of the water pore, and confirmed that the inhibitory action of TEA is not due to nonspecific effects on endogenous channels (Brooks et al., 2000).

AQP1 [1] = target: T2, AQP1 (Homo sapiens, UniProt P29972); assay: Oocyte swelling assay: water permeability (Pf) of AQP1-expressing oocytes, block or % stimulation; assay type: cell-based; design: expressed in transfected cells; host or cells: Xenopus oocytes
T2 sequence (P29972 1-269): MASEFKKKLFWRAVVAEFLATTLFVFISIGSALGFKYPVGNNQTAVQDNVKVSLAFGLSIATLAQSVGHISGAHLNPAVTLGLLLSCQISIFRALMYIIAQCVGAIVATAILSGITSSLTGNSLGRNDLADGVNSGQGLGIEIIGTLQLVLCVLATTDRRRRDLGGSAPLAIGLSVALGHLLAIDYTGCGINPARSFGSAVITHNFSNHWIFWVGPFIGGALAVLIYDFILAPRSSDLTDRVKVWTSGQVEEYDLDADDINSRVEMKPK
Excerpt: as §1, §2, §3

AQP4-expressing oocytes = target: T3, AQP4-expressing oocytes (Homo sapiens, UniProt P55087); assay: Simple screen: time to oocyte bursting in hypotonic saline; assay type: cell-based; conditions: AQP4-expressing oocytes; concentration not given
T3 construct: expressed in transfected cells; host or cells: Xenopus oocytes
T3 sequence (P55087 whole entry, species assumed): as the sequence (P55087 whole entry, species assumed) above
Experimental: The composition of the library for initial AQP channel screening included various channel, transporter and receptor blocking compounds based on intuition and from clues regarding clinical side effects that involved water transporting tissues. In a simple screen (FIG. 1), control and AQP4-expressing oocytes were preincubated in isotonic saline (100 mM NaCl; 5 mM MgCl2; 5 mM HEPES, pH 7.3; ˜200 mOsm) containing the test compound for 10-15 min before each experiment; then the time to oocyte bursting (physical explosion) after transfer to 100 mOsm saline was monitored visually. […] Block was evident in the increased time required for bursting in hypotonic saline.

[2] = tested on: astrocytes expressing AQP4; conditions: cited from earlier work
AQP1 [3] = target: T2, AQP1; conditions: AQP1 expressed in oocytes (Brooks et al., 2000); cited from earlier work
[4] = ↓ block, ↑ activation, ═ no effect, symbols not defined in the table
[5] = ↓ block, ↑ stimulation, ═ no effect, symbols not defined in the table

Structure (SMILES): C=CCNS(=O)(=O)c1cc(C(=O)OC)c(NCc2ccco2)cc1Cl [drawing 119]
AQP-4 effect (arrow symbol) (AQP4; arrow symbols, key not given): (↑)? | AQP-4 effect (in words) (AQP4; at 100 μM): No significant Antagonist Effect | AQP-1 effect (arrow symbol) (AQP1 [1]; arrow symbols, key not given): ═

Structure (SMILES): CNS(=O)(=O)c1cc(C(=O)OC)c(NCc2ccco2)cc1Cl [drawing 115]
AQP-4 effect (arrow symbol) (AQP4; arrow symbols, key not given): ↑ | AQP-4 effect (in words) (AQP4; at 100 μM): Significant Agonist Effect | AQP-1 effect (arrow symbol) (AQP1 [1]; arrow symbols, key not given): ↓↓

Structure (SMILES): [Cl][Hg][Cl] [HgCl2]
time to oocyte bursting (AQP4-expressing oocytes): no effect

Structure (SMILES): NS(=O)(=O)c1cc(C(=O)O)c(Cl)cc1NCc1ccccc1
AQP-4 effect (in words) (AQP4; at 100 μM): p > 0.05 No significant Antagonist Effect at 100 μM

Structure (SMILES): NS(=O)(=O)c1cc(C(=O)O)c(NCc2ccco2)cc1NCc1ccco1 [AQP-0033]
AQP-4 effect: % agonist effect (AQP4; 100 μM, route not stated): −25% | AQP-4 effect (arrow symbol) (AQP4; [4]): ↑ | AQP-1 effect (in words) (AQP1 [1]; given extracellularly): No significant effect | AQP-1 effect (arrow symbol) (AQP1 [1]; [5]): ═

Structure (SMILES): CCCCNc1cc(C(=O)Nc2ccncc2)cc(S(N)(=O)=O)c1Oc1ccccc1 [AQP-0013]
AQP-4 effect: % block (AQP4; 10 μM extracellularly): 80% | AQP-4 effect (arrow symbol) (AQP4; [4]): ↓↓

Structure (SMILES): [Pb] [lead]
increase in water permeability (Pf) [2]: 40%

Structure (SMILES): CCCCNc1cc(C(=O)N2CCOCC2)cc(S(N)(=O)=O)c1Oc1ccccc1 [AQP-0006]
AQP-4 effect: % activation (AQP4; 10 μM given extracellularly): 70% | AQP-4 effect (arrow symbol) (AQP4; [4]): ↑

Structure (SMILES): COC(=O)c1cc(S(N)(=O)=O)c(Cl)cc1NCc1ccco1 [drawing 114]
AQP-4 effect (arrow symbol) (AQP4; arrow symbols, key not given): ═ | AQP-1 effect (arrow symbol) (AQP1 [1]; arrow symbols, key not given): ↓↓

Structure (SMILES): CC[N+](CC)(CC)CC [tetraethylammonium (TEA), tetraethylammonium]
water flux through AQP1 channels (AQP1 [3]): blocks water flux

Next, values leading:

AQP-4 effect: % block / antagonist trend (AQP4; 100 μM, route not stated): −35% | AQP-4 effect (arrow symbol) (AQP4; [4]): ↓
Structure (SMILES): CCCCNc1c(Oc2ccccc2)cc(S(N)(=O)=O)cc1C(=O)O [Bumetanide AQP-0000]

AQP-4 effect: % activation (AQP4; at 10 μM): 110% activation at 10
Structure (SMILES): CCCCNc1cc(C(=O)NCCN2CCN(C)CC2)cc(S(N)(=O)=O)c1Oc1ccccc1 [drawing 101]

AQP-4 effect: % block (AQP4; at 100 μM): −35% block at 100 μM
Structure (SMILES): CCCCNc1c(Oc2ccccc2)cc(S(N)(=O)=O)cc1C(=O)O [drawing 94]

AQP-4 effect (in words) (AQP4; at 10 μM): No Significant effect at 10 μM
Structure (SMILES): CCCCNc1cc(C(=O)NCCCN2CCN(C)CC2)cc(S(N)(=O)=O)c1Oc1ccccc1

AQP-4 effect (in words) (AQP4; at 10 μM): No Significant effect at 10 μM
Structure (SMILES): CCCCNc1cc(C(=O)NCc2ccncc2)cc(S(N)(=O)=O)c1Oc1ccccc1

AQP-4 effect: % block (AQP4; 15 μM given intracellularly): 75% | AQP-4 effect (in words) (AQP4; 100 μM extracellularly): Modest effect | block of swelling rate in AQP4-expressing oocytes (AQP4; extracellular application): less effective then bumetanide | block of swelling in AQP4-expressing oocytes (AQP4; internal injection into the oocyte (intracellular)): improved block at lower concentrations | AQP-4 effect (arrow symbol) (AQP4; [4]): ↓↓ | AQP-1 effect (arrow symbol) (AQP1 [1]; [5]): ═
Structure (SMILES): NS(=O)(=O)c1cc(C(=O)O)c(NCc2ccco2)cc1Cl [furosemide, Furosemide, reference compound]

AQP-4 effect: % activation (AQP4; at 10 μM): 60% activation at 10 μM
Structure (SMILES): CCCCNc1cc(C(=O)NCCN2CCS(=O)(=O)CC2)cc(S(N)(=O)=O)c1Oc1ccccc1 [drawing 103]

AQP-4 effect (arrow symbol) (AQP4; arrow symbols, key not given): ? ↑ | AQP-1 effect (arrow symbol) (AQP1 [1]; arrow symbols, key not given): ═
Structure (SMILES): NS(=O)(=O)c1cc(C(=O)O)c(NCc2ccco2)cc1Cl [drawing 117]

AQP-4 effect (in words) (AQP4; at 10 μM): No Significant effect at 10 μM
Structure (SMILES): CCCCNc1cc(C(=O)NCCN2CCN(CCN)CC2)cc(S(N)(=O)=O)c1Oc1ccccc1

AQP-4 effect: % block (AQP4; at 100 μM): −40% | AQP-4 effect: comparison with bumetanide (in words) (AQP4; relative to bumetanide): Improved block
Structure (SMILES): CCCCNc1c(Oc2ccccc2)cc(S(=O)(=O)NC)cc1C(=O)O

AQP-4 effect (arrow symbol) (AQP4; arrow symbols, key not given): ═ | AQP-1 effect (arrow symbol) (AQP1 [1]; arrow symbols, key not given): ↓
Structure (SMILES): O=C(O)c1cc(S(=O)(=O)NCc2ccccc2)c(Cl)cc1NCc1ccco1
